Experimental data reported in ChEMBL document CHEMBL1137242, “Application of azide-alkyne cycloaddition 'click chemistry' for the synthesis of Grb2 SH2 domain-binding macrocycles” (Bioorg Med Chem Lett, 2006).
Starred links: 1 amine or outer side, 2 acyl side, 3 side chain; linkers in the order of their positions; H or OH if unused. Non-standard residues stand in square brackets, D forms with d. Residues, ends and D or L forms follow the SMILES beside them. *: point of attachment. Pmp = N[C@@H](Cc1ccc(CP(=O)(O)O)cc1)C(=O)O; X1 = O=C(Cn1cc(CCCN[*:1])nn1)[*:2]; Ac6c = NC1(C(=O)O)CCCCC1; NHPentyl = CCCCCN*

These compounds were tested against Growth factor receptor-bound protein 2 (Homo sapiens, UniProt P62993) (assay: Binding affinity to Grb2-SH2 domain).
Sequence of Growth factor receptor-bound protein 2 (P62993 whole entry, the tested form may be a part): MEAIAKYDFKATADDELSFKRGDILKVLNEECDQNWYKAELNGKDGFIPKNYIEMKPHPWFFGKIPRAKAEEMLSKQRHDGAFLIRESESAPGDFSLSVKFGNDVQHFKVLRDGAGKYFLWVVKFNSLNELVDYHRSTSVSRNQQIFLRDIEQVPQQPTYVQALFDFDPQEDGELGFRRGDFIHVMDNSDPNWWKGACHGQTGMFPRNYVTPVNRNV

SMILES | Kd [nM]
NC(=O)C[C@@H]1NC(=O)C2(CCCCC2)NC(=O)[C@@H](Cc2ccc(CP(=O)(O)O)cc2)NC(=O)Cn2cc(nn2)CCCNC(=O)[C@H](CC(N)=O)NC(=O)C2(CCCCC2)NC(=O)[C@@H](Cc2ccc(CP(=O)(O)O)cc2)NC(=O)Cn2cc(nn2)CCCNC1=O | > 1000
NC(=O)C[C@@H]1NC(=O)C2(CCCCC2)NC(=O)[C@H](Cc2ccc(CP(=O)(O)O)cc2)NC(=O)Cn2cc(nn2)CCCNC1=O | 230
NC(=O)C[C@@H]1NC(=O)C2(CCCCC2)NC(=O)[C@@H](Cc2ccc(CP(=O)(O)O)cc2)NC(=O)Cn2cc(nn2)CCCNC1=O | > 1000
NC(=O)C[C@@H]1NC(=O)C2(CCCCC2)NC(=O)[C@H](Cc2ccc(CP(=O)(O)O)cc2)NC(=O)Cn2cc(nn2)CCCNC(=O)[C@H](CC(N)=O)NC(=O)C2(CCCCC2)NC(=O)[C@H](Cc2ccc(CP(=O)(O)O)cc2)NC(=O)Cn2cc(nn2)CCCNC1=O | 1.8
C#CCCCNC(=O)[C@H](CC(N)=O)NC(=O)C1(NC(=O)[C@H](Cc2ccc(CP(=O)(O)O)cc2)NC(=O)CN=[N+]=[N-])CCCCC1 | > 1000
CCCCCNC(=O)[C@H](CC(N)=O)NC(=O)C1(NC(=O)[C@H](Cc2ccc(CP(=O)(O)O)cc2)NC(=O)Cn2cc(CCCNC(=O)[C@H](CC(N)=O)NC(=O)C3(NC(=O)[C@H](Cc4ccc(CP(=O)(O)O)cc4)NC(C)=O)CCCCC3)nn2)CCCCC1 (Ac-[Pmp][Ac6c]N[X1][Pmp][Ac6c]N-NHPentyl) | 1.1
